Source: publication PMC4979527, “Post-translational allosteric activation of the P2X7 receptor through glycosaminoglycan chains of CD44 proteoglycans” (Cell Death Discovery, 2015)
“Also recorded” adds a separate entry of the source.

Assays:
P2X7 receptor [1] = target: T1, P2X7 receptor (Cricetulus griseus, UniProt A0A9J7FWH6); assay: Cytoplasmic Ca2+ influx (Fluo-4, Flex Station 3) in wild-type CHO-K1 cells; format: cell-based, Chinese hamster; details: for Increase of Ca2+cyt response by heparin pre-treatment: heparin pre-incubation 5 min (10-100 μM)
T1 sequence (A0A9J7FWH6 1-593): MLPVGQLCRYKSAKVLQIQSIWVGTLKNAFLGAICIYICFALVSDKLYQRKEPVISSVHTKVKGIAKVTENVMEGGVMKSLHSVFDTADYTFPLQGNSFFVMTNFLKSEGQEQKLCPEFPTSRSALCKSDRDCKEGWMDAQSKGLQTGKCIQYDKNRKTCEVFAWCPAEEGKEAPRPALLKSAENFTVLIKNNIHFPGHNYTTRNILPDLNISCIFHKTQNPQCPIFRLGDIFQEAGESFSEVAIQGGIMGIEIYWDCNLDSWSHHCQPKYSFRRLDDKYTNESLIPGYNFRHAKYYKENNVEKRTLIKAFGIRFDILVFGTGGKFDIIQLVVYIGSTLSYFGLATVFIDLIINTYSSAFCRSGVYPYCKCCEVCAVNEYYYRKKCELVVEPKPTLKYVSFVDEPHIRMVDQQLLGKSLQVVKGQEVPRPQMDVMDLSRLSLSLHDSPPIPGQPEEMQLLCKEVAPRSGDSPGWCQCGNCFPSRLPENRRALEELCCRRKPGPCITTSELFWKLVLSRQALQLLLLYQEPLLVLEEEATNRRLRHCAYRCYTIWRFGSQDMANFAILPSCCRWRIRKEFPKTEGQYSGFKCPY
Procedure: (§1) Cytoplasmic Ca^2+ influx, [Ca^2+]cyt, measurements were monitored through changes of the Fluo-4 fluorescence intensity in real time using the Flex Station 3 microplate reader system. CHO-K1 (●-●) and CHO-745 ([…]-[…]) cells were seeded onto black 96-well plates (10^4 cells/well). Then, the cells were incubated with Fluo-4 for 1 h at 37 °C. […] The data represent the mean±S.E.M. (N=6).
(§2) Subsequently, the cells were incubated with Fluo-4 Direct Calcium Assay reagent for 1 h at 37 °C, according to the manufacturer’s instructions. The samples were stimulated with different agonists, and the fluorescence was quantified using a Flex Station 3 microplate reader (Molecular Devices, Sunnyvale, CA, USA). The Fluo-4 was excited at 490 nm and the emission was detected at 525 nm.[57]

P2X7 receptor [2] = target: T1, P2X7 receptor; assay: Cytoplasmic Ca2+ influx (Fluo-4, Flex Station 3) in mutant CHO-745 cells defective in GAGs; format: cell-based, Chinese hamster; details: for Increase of Ca2+ response by heparin pre-treatment: heparin pre-incubation 5 min (10-100 μM)
Procedure: as §1, §2

P2 receptors = assay: Cytoplasmic Ca2+ influx (Fluo-4) in CHO cells, both lines; format: cell-based, Chinese hamster; details: for Intracellular Ca2+ increase on agonist addition: CHO cells, concentration-response curves; for Modulation of BzATP-stimulated Ca2+ influx by divalent cation: high concentration of cation (10 mM MgCl2; Cu2+ vs 100 μM BzATP), CHO-K1 and CHO-745
Procedure: as §1, §2

CHO-K1 and CHO-745 cells = assay: Cell viability (MTT) and cell death (annexin V-APC/7-AAD) assay; format: cell-based; details: 24 h; for Morphology of CHO cultures (phase contrast microscopy): 4 mM ATP or 1 mM BzATP; for Cell death (MTT assay): high concentration (ATP >1 mM, BzATP >500 μM), both lines
Procedure: The viability of CHO cell lines was determined using the MTT assay.[58] […] The medium was removed, 100 μl of MTT (1 mg/ml) was added to each well and the cells were incubated again at 37 °C for 4 h. The supernatant was removed and 200 μl/well of DMSO was added to solubilize the formazan crystals formed. The absorbance was read at 570 nm using a microplate reader, and the cell viability was determined using the standard reduction of the MTT. The results were expressed relative to control cell viability (100%).
Cell death was investigated using annexin V-APC/7-AAD double staining and was analyzed through flow cytometry.[57],[59] […] The suspensions were transferred to tubes, centrifuged and resuspended with annexin V-APC and 7-AAD according to the manufacturer’s instructions. The cells were incubated at room temperature for 30 min, and the viable, apoptotic or necrotic cell populations were evaluated through flow cytometry. The data were collected using a FACSCalibur flow cytometer (Becton–Dickinson) and CellQuest software (Becton–Dickinson), followed by analysis using FlowJo software (Tree Star). […] The results were calculated as the percentage of cell death compared with the control.

P2X7 receptor [3] = target: T1, P2X7 receptor; details: 4 mM ATP
Procedure: P2X7 pore formation was functionality examined in CHO cells by analyzing PI uptake using a FACSCalibur flow cytometer (Becton–Dickinson). The cells were seeded onto six-well plates (10^6 cells/well) and maintained for 48 h at 37 °C under an atmosphere of 5% (v/v) CO2. Subsequently, the cells were harvested using 10 mM EDTA/PBS and adjusted to a concentration of 10^6 cells per tube. The samples were incubated with 5 μM of PI at a final volume of 200 μl/well in fresh serum-free medium F12 for 15 min, followed by the addition of 4 mM ATP and incubation at 37 °C for 30, 60 and 120 min, respectively. The intensity of dye uptake was immediately determined. A total of 10 000 events were collected for each sample.[60],[61]

[4] = CHO-K1, in presence of 10 mM Mg2+ (MgCl2)
[5] = CHO-745, in presence of 10 mM Mg2+ (MgCl2)

`Nc1ncnc2c1ncn2[C@@H]1O[C@H](COP(=O)(O)OP(=O)(O)OP(=O)(O)O)[C@@H](OC(=O)c2ccc(C(=O)c3ccccc3)cc2)[C@H]1O` (relative stereo) [BzATP+Mg^2+] was tested, and the Emax (P2X7 receptor [1]; [4]) was 153±6 URF, the Hill coefficient (P2X7 receptor [1]; [4]) was 1.5±0.1 and the Emax (P2X7 receptor [2]; [5]) was 119±10 URF. It also gave a Hill coefficient (P2X7 receptor [2]; [5]) of 2.8±0.3.

In the case of `Nc1ncnc2c1ncn2[C@@H]1O[C@H](COP(=O)(O)OP(=O)(O)OP(=O)(O)O)[C@@H](OC(=O)c2ccc(C(=O)c3ccccc3)cc2)[C@H]1O` (relative stereo) [BzATP, 2′(3′)-O-(4-benzoylbenzoyl)adenosine 5′-triphosphate], the Emax (P2X7 receptor [1]; CHO-K1, Ca2+ influx) is reported as 275±8 URF, the Hill coefficient (P2X7 receptor [1]; CHO-K1, Ca2+ influx) is reported as 1.0±0.1 and the Emax (P2X7 receptor [1]; [4]) is reported as 153±6 URF. For the same compound, the Emax (P2X7 receptor [2]; CHO-745, Ca2+ influx) was 136±6 URF, the Hill coefficient (P2X7 receptor [2]; CHO-745, Ca2+ influx) was 1.8±0.2 and the Emax (P2X7 receptor [2]; [5]) was 119±10 URF. The Hill coefficient (P2X7 receptor [2]; [5]) was 2.8±0.3, the “Intracellular Ca2+ increase on agonist addition” value (shortened to “Intracellular Ca2+ increase”) (P2 receptors) was “promoted Ca^2+ increase” and the “Morphology of CHO cultures (phase contrast microscopy)” value (CHO-K1 and CHO-745 cells) was “increased morphological changes and cell detachment”. The “Cell death (MTT assay)” value (CHO-K1 and CHO-745 cells) was “promoted cell death”.

For `CSc1nc(N)c2ncn([C@@H]3O[C@H](COP(=O)(O)OP(=O)(O)OP(=O)(O)O)[C@@H](O)[C@H]3O)c2n1` [2-MeSATP, 2-(methylthio)adenosine 5′-triphosphate], the “Intracellular Ca2+ increase” value (P2 receptors) was “did not increase intracellular Ca^2+”.

`Nc1ncnc2c1ncn2[C@@H]1O[C@H](COP(=O)(O)OP(=O)(O)O)[C@@H](O)[C@H]1O` [ADP, adenosine 5′-diphosphate] was tested, and the “Intracellular Ca2+ increase” value (P2 receptors) was “promoted Ca^2+ increase”.

Compound `Nc1ncnc2c1ncn2[C@@H]1O[C@H](COP(=O)(O)OP(=O)(O)OP(=O)(O)O)[C@@H](O)[C@H]1O` [ATP, adenosine 5′-triphosphate] has an Emax (P2X7 receptor [1]; CHO-K1, Ca2+ influx) of 258±10 URF, a Hill coefficient (P2X7 receptor [1]; CHO-K1, Ca2+ influx) of 0.9±0.1 and an Emax (P2X7 receptor [2]; CHO-745, Ca2+ influx) of 97±7 URF. For the same compound, the Hill coefficient (P2X7 receptor [2]; CHO-745, Ca2+ influx) was 2.0±0.3, the “Intracellular Ca2+ increase” value (P2 receptors) was “promoted Ca^2+ increase” and the “Sensitivity to PI accumulation, CHO-745 less sensitive than CHO-K1” value (P2X7 receptor [3]) was 2.5 fold. For the same compound, the “Propidium iodide (PI) uptake” value (P2X7 receptor [3]; CHO cells, after 30 min at 37 °C) was “induced the time-dependent uptake of propidium iodide”, the “Morphology of CHO cultures (phase contrast microscopy)” value (CHO-K1 and CHO-745 cells) was “increased morphological changes and cell detachment” and the “Cell death (MTT assay)” value (CHO-K1 and CHO-745 cells) was “promoted cell death”.

For `[Cu+2]` [Cu^2+], the “Modulation of BzATP-stimulated Ca2+ influx by divalent cation” value (P2 receptors) was “negatively modulated”.

With `[Mg+2]` [Mg^2+] the “Modulation of BzATP-stimulated Ca2+ influx by divalent cation” value (P2 receptors) was “negatively modulated”.

`O=c1ccn([C@@H]2O[C@H](COP(=O)(O)OP(=O)(O)O)[C@@H](O)[C@H]2O)c(=O)[nH]1` [UDP, uridine 5′-diphosphate] was tested, and the “Intracellular Ca2+ increase” value (P2 receptors) was “promoted Ca^2+ increase”.

With `O=c1ccn([C@@H]2O[C@H](COP(=O)(O)OP(=O)(O)OP(=O)(O)O)[C@@H](O)[C@H]2O)c(=O)[nH]1` [UTP, uridine 5′-triphosphate] the “Intracellular Ca2+ increase” value (P2 receptors) was “promoted Ca^2+ increase”.

For `[Na+].[O-][Cl+2]([O-])[O-]` [chlorate, sodium chlorate], the “Inhibition of total P2X7 agonist (ATP or BzATP) response” value (P2X7 receptor [1]; CHO-K1, pre-treatment 20 or 50 mM sodium chlorate, 24 h) was ~ 35% and the “Effect on P2X7 agonist response” value (P2X7 receptor [2]; CHO-745, pre-treatment 20 or 50 mM sodium chlorate) was “did not block the P2X7 agonist response”.

With `Nc1ncnc2c1ncn2[C@@H](C=O)O[C@@H](C=O)COP(=O)(O)OP(=O)(O)OP(=O)(O)O` [oxATP, adenosine 5′-triphosphate periodate oxidized] the “Effect of antagonist on BzATP-evoked Ca2+ influx” value (P2X7 receptor [1]; CHO-K1, 300 μM oxATP, 100 μM BzATP) was “abolished the effect of BzATP” and the “Effect of antagonist on BzATP-evoked Ca2+ influx” value (P2X7 receptor [2]; CHO-745, 300 μM oxATP, 100 μM BzATP) was “abolished the effect of BzATP”.

In the case of `O=[N+]([O-])c1ccccc1O[C@@H]1OC[C@@H](O)[C@H](O)[C@H]1O` [xylosides, o-nitrophenyl-β-D-xylopyranoside], the “Inhibition of response induced through BzATP-gated P2X7” value (P2X7 receptor [1]; CHO-K1, 2 mM xyloside pre-treatment (120 h), 3 μM BzATP) is reported as 82%, the “Inhibition of response induced through ATP-gated P2X7” value (P2X7 receptor [1]; CHO-K1, 2 mM xyloside pre-treatment (120 h), 10 μM ATP) is reported as 55% and the “Effect on P2X7 agonist response” value (P2X7 receptor [2]; CHO-745, 2 mM xyloside pre-treatment) is reported as “did not block the P2X7 agonist response”.

With `Nc1ncnc2c1ncn2C1OC(COP(=O)(O)CP(=O)(O)OP(=O)(O)O)C(O)C1O` (stereo not drawn) [αβ-MeATP, α,β-methyleneadenosine 5′-triphosphate] the “Intracellular Ca2+ increase” value (P2 receptors) was “did not increase intracellular Ca^2+”.

In the case of `Nc1ncnc2c1ncn2C1OC(COP(=O)(O)OP(=O)(O)CP(=O)(O)O)C(O)C1O` (stereo not drawn) [βγ-MeATP, β,γ-methyleneadenosine 5′-triphosphate], the “Intracellular Ca2+ increase” value (P2 receptors) is reported as “did not increase intracellular Ca^2+”.

For heparin, the “Increase of Ca2+cyt response by heparin pre-treatment” value (P2X7 receptor [1]; CHO-K1, 10 μM ATP) was 120%, the “Potentiation of Ca2+ influx” value (P2X7 receptor [1]; CHO-K1, 100 μM heparin, 3 μM BzATP) was 2.2 fold and the “Increase of Ca2+cyt response by heparin pre-treatment” value (P2X7 receptor [1]; CHO-K1, 1 mM ATP) was 78%. For the same compound, the “Increase of Ca2+ response by heparin pre-treatment” value (P2X7 receptor [2]; CHO-745, 10 μM ATP) was 40%, the “Increase of Ca2+ response by heparin pre-treatment” value (P2X7 receptor [2]; CHO-745, 1 mM ATP) was 50% and the “Effect of heparin on Ca2+ influx at saturating agonist” value (P2 receptors; BzATP >100 μM or ATP >4 mM) was “induced no further increase in Ca^2+ influx”. For the same compound, the “P2X7 stimulation by heparin alone” value (P2 receptors; absence of ATP or BzATP, highest heparin concentration) was “did not elicit P2X7 stimulation; also recorded: did not elicit discernible P2X7 activation”.
